Assay results from patent publication US9850247B2 (Almac Discovery Limited, priority 2013, dated 2017).

What was measured:
Wee-1 kinase = target: T1, Wee-1 kinase (Homo sapiens, UniProt P30291); assay: Measurement of Wee-1 kinase activity (ADP-Glo luminescent kit); type: biochemical
T1 construct: purchased Invitrogen PV3817
How it was run: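 Activated Wee-1 was pre-incubated 30 min at RT with compound in 40 mM Tris-HCl, 20 mM MgCl2, 0.1 mg/mL BSA and 2 mM DTT. The reaction was started with an aliquot of 2.0 μg/mL poly(Lys,Tyr 4:1) plus 30 μM ATP and run 1 h at RT. ADP-Glo luminescence gave IC50 by non-linear fit.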

[1] = CLint estimates using human liver microsomes (Method 4); type: in vitro ADME; settings: pH 7.4, 1 μM compound, read-out: Mics - CLint (HLM CLint)
How it was run: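 Compound at 1 μM (0.1% DMSO) incubated with human liver microsomes (0.5 mg protein/mL) in 0.1 M phosphate pH 7.4 at 37 °C, started with 1 mM NADPH. Samples taken 2–50 min, quenched in methanol, measured by LC/MS/MS (MRM). Half-life and CLint derived from the slope of ln peak area versus time.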

[2] = test system: phospho-cdc2 (Tyr15) in HT-29 cells; assay: Effect on Cdc2 phosphorylation at Tyr15, Cell-Based ELISA Base Kit (Method 3); settings: Homo sapiens, HT-29, 8 h, eight hours incubation, normalized to total cdc2, read-out: HT29 pCDC2 method 3
Description: Method 3: Determining the Effect of Compounds on the Cdc2 phosphorylation at Tyr15, using a Cell-Based ELISA Base Kit (R&D Systems, KCB001)
The colorectal cancer cell line, HT-29 was purchased from the ATCC and maintained in McCoy's 5 A medium (Gibco®, Life technologies) supplemented with 10% Foetal Calf Serum (FCS).
The cells were trypsinised and counted, 100 μL of 8000 cells was seeded into each well of a clear-bottom black 96-well microplate and incubated overnight to allow adherence to the surface, at 37° C. and 5% CO2 in a cell culture incubator.
Test compounds were formulated in DMSO and diluted in cell culture medium supplemented with FCS. Grow medium was removed from cells and medium containing compounds dilutions was added to each well. The plate was returned to the incubator for an additional eight hours of incubation at 37° C. and 5% CO2.
Post incubation cells were fixed by replacing the compounds supplemented medium with 100 μL of 4% formaldehyde in 1× phosphate buffered saline (PBS), for 20 minutes at room temperature. Formaldehyde solution was removed and cells were washed three times with PBS. The Cell-Based ELISA assay (R&D Systems) was carried out immediately after cell fixation or the plate was sealed and fixed cells were stored in PBS at 4° C. until required (no more than two weeks).
To continue the assay, PBS was removed and cells were washed 3 times for 5 minutes with 200 μL of 1× wash buffer. Each wash step was carried out with gentle shaking. Following washes, 100 μL of 0.6% H2O2 in 1× wash buffer (quenching buffer) was added, plate was sealed and incubated for 20 minutes at room temperature. Post incubation cells were washes 3 times for 5 minutes with 200 μL of 1× wash buffer, with gentle shaking. 100 μL of blocking buffer was added to each well, the plate was re-sealed and incubated at room temperature for 1 h.
After blocking, cells were washed as described above. A primary antibody mixture was prepared by mixing the two primary antibodies, a rabbit monoclonal antibody for phospho-cdc2 (Tyr15) (Cell Signaling, #4539) and mouse monoclonal antibody for total cdc2 p34 (Santa Cruz Biotechnology, sc-54), diluted 1:25 and 1:50 in blocking buffer, respectively. 60 μL of primary antibody mixture was added to each well, the plate was sealed and incubated overnight at 4° C.
The primary antibodies were removed and cells were washed as previously described. 100 μL of secondary antibody mixture, containing horseradish-peroxidase (HRP)-conjugated goat anti-rabbit IgG and alkaline phosphatase (AP)-conjugated goat anti-mouse IgG, diluted 1:100 in blocking buffer, was added to each test well. The plate was re-sealed and incubated for 2 hours at room temperature.
The secondary antibodies were removed and cells washed 2 times with wash buffer, followed by 2 washes with PBS. Each wash step was carried out for 5 minutes with gentle shaking. PBS was removed and 75 μL of fluorogenic substrate for HRP (substrate F1) added to each well. The plate was sealed and incubated for 1 h at room temperature, in the dark. 75 μL of fluorogenic substrate for AP (substrate F2) was added directly to each well, plate re-sealed and incubated for additional 40 minutes at room temperature, protected from direct light.
Following incubation fluorescence from each well was read at 600 nm (signal from substrate 1, phosphorylated protein) and then at 450 nm (signal from substrate 2, total protein).
The percentage of phospho-cdc2 was calculated compared to DMSO control, normalized to the total cdc2 and plotted versus the concentration of inhibitor, using GraphPad Prism. Data was fitted using a non-linear regression analysis and EC50 values generated.

T1 sequence (P30291 whole entry): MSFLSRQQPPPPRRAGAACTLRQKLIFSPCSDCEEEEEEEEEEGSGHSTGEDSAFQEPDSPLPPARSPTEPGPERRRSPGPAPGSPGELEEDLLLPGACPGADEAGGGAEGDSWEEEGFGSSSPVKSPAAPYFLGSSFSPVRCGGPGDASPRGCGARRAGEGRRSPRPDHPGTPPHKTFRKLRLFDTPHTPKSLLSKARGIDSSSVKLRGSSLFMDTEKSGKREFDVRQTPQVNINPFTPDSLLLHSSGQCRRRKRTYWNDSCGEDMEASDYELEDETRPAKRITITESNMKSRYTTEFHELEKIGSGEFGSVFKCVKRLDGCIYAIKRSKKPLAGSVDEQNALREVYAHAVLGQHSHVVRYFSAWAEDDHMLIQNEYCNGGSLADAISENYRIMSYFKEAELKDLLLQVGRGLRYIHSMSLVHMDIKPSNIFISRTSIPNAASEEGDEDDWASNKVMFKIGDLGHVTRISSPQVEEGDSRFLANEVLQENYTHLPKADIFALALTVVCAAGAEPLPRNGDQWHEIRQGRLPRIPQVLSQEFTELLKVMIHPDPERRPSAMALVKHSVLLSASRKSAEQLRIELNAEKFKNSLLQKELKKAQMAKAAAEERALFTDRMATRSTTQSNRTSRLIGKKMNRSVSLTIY

| SMILES | IC50 (Wee-1 kinase) [nM] | microsomal CLint at 1 μM [1] [µL/min/mg] | EC50 [2] [nM] |
| --- | --- | --- | --- |
| C[C@@H]1CN(c2ccc(Nc3ncc4c(n3)N(C)CN(c3c(Cl)cccc3Cl)C4=O)cc2CO)CCN1C [Example 46, (R)-3-(2,6-dichlorophenyl)-7-((4-(3,4-dimethylpiperazin-1-yl)-3-(hydroxymethyl)phenyl)amino)-1-methyl-2,3-dihydropyrimido[4,5-d]pyrimidin-4(1H)-one] | ≤ 10 | ≤ 15 | 100 to 1000 |
| Cc1cc(Nc2ncc3c(n2)N(C)CN(c2c(F)cccc2Cl)C3=O)ccc1N1CCNCC1 [Example 55, 3-(2-chloro-6-fluorophenyl)-1-methyl-7-((3-methyl-4-(piperazin-1-yl)phenyl)amino)-2,3-dihydropyrimido[4,5-d]pyrimidin-4(1H)-one] | ≤ 10 | ≤ 15 | 100 to 1000 |
| CCN1CCN(c2ccc(Nc3ncc4c(n3)N(C)CN(c3c(Cl)cccc3Cl)C4=O)cc2CO)CC1 [Example 72, 3-(2,6-dichlorophenyl)-7-((4-(4-ethylpiperazin-1-yl)-3-(hydroxymethyl)phenyl)amino)-1-methyl-2,3-dihydropyrimido[4,5-d]pyrimidin-4(1H)-one] | ≤ 10 | ≤ 15 | 100 to 1000 |
| Cc1cc(Nc2ncc3c(n2)N(C)CN(c2c(Cl)cccc2Cl)C3=O)ccc1N1C[C@@H]2C[C@H]1CN2C [Example 77, 3-(2,6-dichlorophenyl)-1-methyl-7-((3-methyl-4-((1S,4S)-5-methyl-2,5-diazabicyclo[2.2.1]heptan-2-yl)phenyl)amino)-2,3-dihydropyrimido[4,5-d]pyrimidin-4(1H)-one] | ≤ 10 | 15 to 50 | 100 to 1000 |
| [2H]C([2H])([2H])N1CN(c2c(Cl)cccc2Cl)C(=O)c2cnc(Nc3ccc(N4CCN[C@H](C)C4)cc3)nc21 [Example 78, (R)-3-(2,6-dichlorophenyl)-1-d3-methyl-7-((4-(3-methylpiperazin-1-yl)phenyl)amino)-2,3-dihydropyrimido[4,5-d]pyrimidin-4(1H)-one] | ≤ 10 | ≤ 15 | 100 to 1000 |
| CN1CN(c2c(Cl)cccc2Cl)C(=O)c2cnc(Nc3ccc(N4CC5CCC(C4)N5C)cc3)nc21 [Example 88, 3-(2,6-dichlorophenyl)-1-methyl-7-((4-(8-methyl-3,8-diazabicyclo[3.2.1]octan-3-yl)phenyl)amino)-2,3-dihydropyrimido[4,5-d]pyrimidin-4(1H)-one] | ≤ 10 | 15 to 50 | 100 to 1000 |
| CC(C)N1CCN(c2ccc(Nc3ncc4c(n3)N(C)CN(c3c(F)cccc3Cl)C4=O)cc2CO)CC1 [Example 89, 3-(2-chloro-6-fluorophenyl)-7-((3-(hydroxymethyl)-4-(4-isopropylpiperazin-1-yl)phenyl)amino)-1-methyl-2,3-dihydropyrimido[4,5-d]pyrimidin-4(1H)-one] | ≤ 10 | ≤ 15 | 100 to 1000 |
| Cc1cccc(Cl)c1N1CN(C)c2nc(Nc3ccc(N4CC5CCC(C4)N5C)c(CO)c3)ncc2C1=O [Example 114, 3-(2-chloro-6-methylphenyl)-7-((3-(hydroxymethyl)-4-(8-methyl-3,8-diazabicyclo[3.2.1]octan-3-yl)phenyl)amino)-1-methyl-2,3-dihydropyrimido[4,5-d]pyrimidin-4(1H)-one] | ≤ 10 | ≤ 15 | 100 to 1000 |
| CN(C)CC(=O)N1CCN(c2ccc(Nc3ncc4c(n3)N(C)CN(c3c(Cl)cccc3Cl)C4=O)cc2)CC1 [Example 123, 3-(2,6-dichlorophenyl)-7-((4-(4-(2-(dimethylamino)acetyl)piperazin-1-yl)phenyl)amino)-1-methyl-2,3-dihydropyrimido[4,5-d]pyrimidin-4(1H)-one] | ≤ 10 | ≥ 50 | 100 to 1000 |
| CNCC(=O)N1CCN(c2ccc(Nc3ncc4c(n3)N(C)CN(c3c(Cl)cccc3Cl)C4=O)cc2)CC1 [Example 124, 3-(2,6-dichlorophenyl)-1-methyl-7-((4-(4-(2-(methylamino)acetyl)piperazin-1-yl)phenyl)amino)-2,3-dihydropyrimido[4,5-d]pyrimidin-4(1H)-one] | ≤ 10 | ≤ 15 | 100 to 1000 |

The next lines start with results.

| IC50 (Wee-1 kinase) [nM] | microsomal CLint at 1 μM [1] [µL/min/mg] | SMILES | EC50 [2] [nM] |
| --- | --- | --- | --- |
| 10 to 100 | ≤ 15 | COC[C@@H]1CN(c2ccc(Nc3ncc4c(n3)N(C)CN(c3c(Cl)cccc3Cl)C4=O)cc2)CCN1 [Example 61, (S)-3-(2,6-dichlorophenyl)-7-((4-(3-(methoxymethyl)piperazin-1-yl)phenyl)amino)-1-methyl-2,3-dihydropyrimido[4,5-d]pyrimidin-4(1H)-one] | 100 to 1000 |
| ≤ 10 | 15 to 50 | CN1CN(c2c(Cl)cccc2Cl)C(=O)c2cnc(Nc3ccc(N4CCN(C)C(C)(C)C4)cc3)nc21 [Example 63, 3-(2,6-dichlorophenyl)-1-methyl-7-((4-(3,3,4-trimethylpiperazin-1-yl)phenyl)amino)-2,3-dihydropyrimido[4,5-d]pyrimidin-4(1H)-one] | 100 to 1000 |
| ≤ 10 | ≥ 50 | CN1Cc2cc(Nc3ncc4c(n3)N(C)CN(c3c(Cl)cccc3Cl)C4=O)ccc2C2(CC2)C1 [Example 76, 3-(2,6-dichlorophenyl)-1-methyl-7-((2′-methyl-2′,3′-dihydro-1′H-spiro[cyclopropane-1,4′-isoquinolin]-7′-yl)amino)-2,3-dihydropyrimido[4,5-d]pyrimidin-4(1H)-one] | 100 to 1000 |
| ≤ 10 | 15 to 50 | C[C@@H]1CN(c2ccc(Nc3ncc4c(n3)N(C)CN(c3c(Cl)cccc3Cl)C4=O)cc2)C[C@H](C)N1 [Example 83, 3-(2,6-dichlorophenyl)-7-((4-((3R,5S)-3,5-dimethylpiperazin-1-yl)phenyl)amino)-1-methyl-2,3-dihydropyrimido[4,5-d]pyrimidin-4(1H)-one] | 100 to 1000 |
| ≤ 10 | ≤ 15 | CN1CCC(c2ccc(Nc3ncc4c(n3)N(C)CN(c3c(Cl)cccc3Cl)C4=O)cc2)CC1 [Example 95, 3-(2,6-dichlorophenyl)-1-methyl-7-((4-(1-methylpiperidin-4-yl)phenyl)amino)-2,3-dihydropyrimido[4,5-d]pyrimidin-4(1H)-one] | 100 to 1000 |
| ≤ 10 | 15 to 50 | CN1CN(c2c(Cl)cccc2Cl)C(=O)c2cnc(Nc3ccc(N4CCNC(C)(C)C4)cc3)nc21 [Example 96, 3-(2,6-dichlorophenyl)-7-((4-(3,3-dimethylpiperazin-1-yl)phenyl)amino)-1-methyl-2,3-dihydropyrimido[4,5-d]pyrimidin-4(1H)-one] | 100 to 1000 |
| 10 to 100 | 15 to 50 | CN1CCN(c2ccc(Nc3ncc4c(n3)N(C)CN(c3c(Cl)cccc3Cl)C4=O)cc2)CC1 [Example 117, 3-(2,6-dichlorophenyl)-1-methyl-7-((4-(4-methylpiperazin-1-yl)phenyl)amino)-2,3-dihydropyrimido[4,5-d]pyrimidin-4(1H)-one] | 100 to 1000 |
